Key:
Type in all cases: cell-based
T-47D cells = test: Inhibition of cell proliferation in T-47D cells (CCK-8, 6 days); conditions: 6 days of treatment, Table 3
In short: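 Viability read-out was CCK-8 after 6 days of compound treatment (37 °C, 5% CO2) across graded concentrations. Cells were T-47D seeded at 3,000 per well in 1640 medium plus 10% FBS. IC50 was calculated against proliferation.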

MCF-7 cells = test: Inhibition of cell proliferation of MCF-7 cells (CCK-8, 9 days); conditions: treated for 9 days, CCK-8 kit (Table 6)
In short: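 Read-out was CCK-8 viability after 9-day continuous exposure (37°C, 5% CO2) of MCF-7 cells plated at 800/well in 10% FBS DMEM across several compound concentrations. Values are proliferation IC50s.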

ERα [1] = biological target: T1, ERα (Homo sapiens, UniProt P03372); test: Degradation of ERα in MCF-7 cells (immunoblotting, 4 h)
T1 sequence (P03372 1-595): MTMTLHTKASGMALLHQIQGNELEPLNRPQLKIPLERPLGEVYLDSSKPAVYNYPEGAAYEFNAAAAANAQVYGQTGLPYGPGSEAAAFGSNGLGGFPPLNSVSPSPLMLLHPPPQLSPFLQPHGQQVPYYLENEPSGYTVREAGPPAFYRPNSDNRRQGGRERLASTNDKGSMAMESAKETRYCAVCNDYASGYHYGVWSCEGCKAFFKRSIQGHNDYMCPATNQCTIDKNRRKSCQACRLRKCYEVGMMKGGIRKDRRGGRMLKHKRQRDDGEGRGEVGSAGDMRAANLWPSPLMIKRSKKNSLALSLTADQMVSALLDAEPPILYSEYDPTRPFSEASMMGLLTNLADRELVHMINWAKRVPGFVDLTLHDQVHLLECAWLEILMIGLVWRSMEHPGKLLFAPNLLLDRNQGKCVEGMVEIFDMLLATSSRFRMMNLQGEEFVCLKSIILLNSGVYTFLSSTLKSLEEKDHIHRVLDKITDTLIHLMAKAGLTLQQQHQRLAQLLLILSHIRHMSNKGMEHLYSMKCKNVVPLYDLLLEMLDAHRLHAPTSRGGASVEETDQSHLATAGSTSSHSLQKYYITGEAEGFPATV
In short: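 Degradation rate reflects ERα band intensity, corrected to an internal reference protein, relative to control. Values come from Western blotting of lysates from MCF-7 cells exposed 4 h at 37°C to compounds at final concentrations of 0.15-1000nM.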

ERα [2] = biological target: T1, ERα; test: Degradation of ERα in T-47D cells (immunoblotting, 4 h); set-up: host or cells: T-47D
In short: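 ERα protein levels were assessed by immunoblot of RIPA lysates (with protease inhibitor) after 4 h exposure at 37°C. Compound was added in DMSO to T-47D cells at final concentrations of 0.15-1000 nM.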

Row | Compound | IC50 (T-47D cells) [nM] | IC50 (MCF-7 cells) [nM] | Degradation rate (%) of ERα in MCF-7 cells (ERα [1]; 1nM compound) [%] | Degradation rate (%) of ERα in MCF-7 cells (ERα [1]; 10nM compound) [%] | Degradation rate (%) of ERα in T-47D cells (ERα [2]; 1nM compound) [%] | Degradation rate (%) of ERα in T-47D cells (ERα [2]; 10nM compound) [%]
1 | O=C1CCC(N2Cc3c(ccc4c3OCC43CCN(C4CCC(Oc5ccc([C@@H]6c7ccc(O)cc7CC[C@@H]6c6ccccc6)cc5)CC4)CC3)C2=O)C(=O)N1 (stereo partly drawn) [H12] | 15.9 | 35.5 | 4 | 28 | -1 | 11
2 | O=C1CCC(N2Cc3c(ccc4c3OCC43CCN(C(=O)CC4CCN(c5ccc([C@@H]6c7ccc(O)cc7CC[C@@H]6c6ccccc6)cc5)CC4)CC3)C2=O)C(=O)N1 (stereo partly drawn) [H16] | 5.7 | 9770 | 9 | 37 | 48 | 69
3 | O=C1CCC(N2Cc3cc4c(cc3C2=O)OC2(CC4)CN(C3CC4(C3)CC3(CCN(c5ccc([C@@H]6c7ccc(O)cc7CC[C@@H]6c6ccccc6)cc5)CC3)C4)C2)C(=O)N1 (stereo partly drawn) [H25] | 6.02 | 1720 | -9 | -50 | 23 | 48
4 | O=C1CCC(N2C(=O)c3ccc4c(c3C2=O)OCC42CCN(C3CCN(C(=O)C4CCN(c5ccc([C@@H]6c7ccc(O)cc7CC[C@@H]6c6ccccc6)cc5)CC4)CC3)CC2)C(=O)N1 (stereo partly drawn) [H27] | 4.65 | 800 | 11 | 46 | 36 | 78
5 | C[C@@H]1C[C@H](N2CCC3(CC2)COc2c3ccc3c2CN(C2CCC(=O)NC2=O)C3=O)CCN1C1CC2(CCN(c3ccc([C@@H]4c5ccc(O)cc5CC[C@@H]4c4ccccc4)cc3)CC2)C1 (stereo partly drawn) [H30] | 5.78 | 0.115 | -1 | 62 | 37 | 74
6 | COC(=O)[C@@H]1C[C@H](N2CCC3(CC2)COc2c3ccc3c2CN(C2CCC(=O)NC2=O)C3=O)CCN1C1CC2(CCN(c3ccc([C@@H]4c5ccc(O)cc5CC[C@@H]4c4ccccc4)cc3)CC2)C1 (stereo partly drawn) [H31] | 1.8 | 43.3 | 46 | 83 | 55 | 85
7 | CNC(=O)[C@@H]1CC(N2CCC3(CC2)COc2c3ccc3c2CN(C2CCC(=O)NC2=O)C3=O)CCN1C1CC2(CCN(c3ccc([C@@H]4c5ccc(O)cc5CC[C@@H]4c4ccccc4)cc3)CC2)C1 (stereo partly drawn) [H38] | 2.58 | 31.8 | 49 | 71 | 34 | 75
8 | C[C@H]1CN(C2CC3(CCN(c4ccc([C@@H]5c6ccc(O)cc6CC[C@@H]5c5ccccc5)cc4)CC3)C2)CC[C@H]1N1CCC2(CC1)COc1c2ccc2c1CN(C1CCC(=O)NC1=O)C2=O (stereo partly drawn) [H39] | 3.38 | 65.2 | 20 | 71 | 15 | 64

Continued, values first:

Row | IC50 (T-47D cells) [nM] | IC50 (MCF-7 cells) [nM] | Degradation rate (%) of ERα in MCF-7 cells (ERα [1]; 1nM compound) [%] | Degradation rate (%) of ERα in MCF-7 cells (ERα [1]; 10nM compound) [%] | Degradation rate (%) of ERα in T-47D cells (ERα [2]; 1nM compound) [%] | Degradation rate (%) of ERα in T-47D cells (ERα [2]; 10nM compound) [%] | Compound
9 | 1.02 | 62.7 | 47 | 54 | 61 | 68 | O=C1CCC(N2Cc3c(ccc4c3OCC43CCN(C(=O)C4CCC(N5CCN(c6ccc([C@@H]7c8ccc(O)cc8CC[C@@H]7c7ccccc7)cc6)CC5)CC4)CC3)C2=O)C(=O)N1 (stereo partly drawn) [H17]
10 | 1.55 | 7380 | 18 | 58 | 69 | 57 | O=C1CCC(N2Cc3c(ccc4c3OCC43CCN(CC(=O)N4CCN(c5ccc([C@@H]6c7ccc(O)cc7CC[C@@H]6c6ccccc6)cc5)CC4)CC3)C2=O)C(=O)N1 (stereo partly drawn) [H18]
11 | 1.8 | 151 | 27 | 21 | 39 | 55 | O=C1CCC(N2Cc3c(ccc4c3OCC43CCN(CC(=O)N4CCC5(CCN(c6ccc([C@@H]7c8ccc(O)cc8CC[C@@H]7c7ccccc7)cc6)C5)C4)CC3)C2=O)C(=O)N1 (stereo partly drawn) [H19]
12 | 1.22 | 1320 | -18 | -14 | 13 | -14 | O=C1CCC(N2Cc3c(ccc4c3OCC43CCN(CCN4CCN(c5ccc([C@@H]6c7ccc(O)cc7CC[C@@H]6c6ccccc6)cc5)CC4)CC3)C2=O)C(=O)N1 (stereo partly drawn) [H20]
13 | 1.02 | 163 | 18 | 37 | 35 | 65 | O=C1CCC(N2Cc3c(ccc4c3OCC43CCN(C(=O)CN4CC[C@]5(CCN(c6ccc([C@@H]7c8ccc(O)cc8CC[C@@H]7c7ccccc7)cc6)C5)C4)CC3)C2=O)C(=O)N1 (stereo partly drawn) [H21]
14 | 1.57 | 3.5 | 32 | 64 | 56 | 73 | O=C1CCC(N2Cc3c(ccc4c3OCC43CCN(C(=O)C4CCN(C5CCN(c6ccc([C@@H]7c8ccc(O)cc8CC[C@@H]7c7ccccc7)cc6)CC5)CC4)CC3)C2=O)C(=O)N1 (stereo partly drawn) [H22]
15 | 1.58 | 9.19 | 44 | 51 | 50 | 68 | O=C1CCC(N2Cc3c(ccc4c3OCC43CCN(CC(=O)N4CC[C@]5(CCN(c6ccc([C@@H]7c8ccc(O)cc8CC[C@@H]7c7ccccc7)cc6)C5)C4)CC3)C2=O)C(=O)N1 (stereo partly drawn) [H23]
16 | 1.01 | 8.41 | 36 | 65 | 62 | 83 | C[C@@H]1C[C@H](N2CCC3(CC2)COc2c3ccc3c2CN(C2CCC(=O)NC2=O)C3=O)CCN1C(=O)C1CCN(c2ccc([C@@H]3c4ccc(O)cc4CC[C@@H]3c3ccccc3)cc2)CC1 (stereo partly drawn) [H28]
17 | 1.44 | 4020 | 35 | 58 | 52 | 77 | COC(=O)[C@@H]1C[C@H](N2CCC3(CC2)COc2c3ccc3c2CN(C2CCC(=O)NC2=O)C3=O)CCN1C1CCN(c2ccc([C@@H]3c4ccc(O)cc4CC[C@@H]3c3ccccc3)cc2)CC1 (stereo partly drawn) [H32]
18 | 1.37 | 12.5 | 32 | 76 | 27 | 72 | O=C1CCC(N2Cc3c(ccc4c3OCC43CCN(C4CCN(C5CC6(CCN(c7ccc([C@@H]8c9ccc(O)cc9CC[C@@H]8c8ccccc8)cc7)CC6)C5)CC4F)CC3)C2=O)C(=O)N1 (stereo partly drawn) [H33]
19 | 1.33 | 10.9 | 42 | 65 | 30 | 77 | O=C1CCC(N2Cc3c(ccc4c3OCC43CCN(C4CCN(C5CCN(c6ccc([C@@H]7c8ccc(O)cc8CC[C@@H]7c7ccccc7)cc6)CC5)CC4F)CC3)C2=O)C(=O)N1 (stereo partly drawn) [H34]
20 | 1.06 | 72.4 | 24 | 70 | 21 | 75 | O=C1CCC(N2Cc3c(ccc4c3OCC43CCN([C@H]4CCN(C5CC6(CCN(c7ccc([C@@H]8c9ccc(O)cc9CC[C@@H]8c8ccccc8)cc7)CC6)C5)C[C@H]4F)CC3)C2=O)C(=O)N1 (stereo partly drawn) [H36]

Source: EP4656642A1, “ESTROGEN RECEPTOR PROTEOLYSIS TARGETING CHIMERA COMPOUND AND USE THEREOF” (GAN & LEE PHARM CO., LTD, priority 2023, dated 2024)
